Assay results from US7211599B2, “Use of etodolac to treat hyperplasia” (The Regents of the University of California, priority 2002, dated 2007).
Where “and” joins values, the source holds several entries; their conditions need not be identical. Identical values can stand only once. Marks after values point to notes of the source that are not given here.

How the values were obtained:
[1] = tested on: prostaglandin synthetase; settings: Demerson et al. 1983; cited from earlier work
[2] = tested on: rats with adjuvant polyarthritis; settings: Demerson et al. 1983; cited from earlier work
[3] = cited from earlier work
[4] = cited from earlier work; remark: listed apart in the source
[5] = tested on: transgenic adenocarcinoma mouse prostate (TRAMP) mouse; experiment: TRAMP animal model: average weight of dissected prostate lobes; format: in vivo
Procedure: (§1) The transgenic adenocarcinoma mouse prostate (TRAMP) mouse, was used to evaluate the effect of R-etodolac on prostate cancer progression. The etodolac was compounded into the diet at 312 ppm (low dose) and 1250 ppm (high dose) and the animals were treated for 18 weeks. At necoscopy, the urogenital system was removed and weighed. The prostate lobes, seminal vesicles, lungs, liver, and periaortic lymph nodes were preserved and sectioned for histological evaluation and graded on a 1-6 scale for degree of hyperplasia/neoplasia/carcinoma.

[6] = tested on: transgenic adenocarcinoma mouse prostate (TRAMP) mouse; experiment: TRAMP animal model: histopathological evaluation of the prostate (grade 1-6); format: in vivo; design: key to Average mouse Staging / Overall Mean (staging of group) / Histopathological grade, Lateral prostate: histological grade on 1-6 scale of hyperplasia/neoplasia/carcinoma; settings: for Overall Mean (staging of group): TRAMP mice; for Average mouse Staging: mean of lobe grades
Procedure: as §1

[7] = tested on: hyperplastic cells; experiment: Activity against hyperplastic cells; settings: compared with S(+) enantiomer
Text: The pharmacokinetics of etodolac have been extensively reviewed by D. R. Brocks et al., Clin. Pharmacokinet., 26, 259 (1994). Etodolac is marketed as the racemate.

[8] = after a 200 mg dose in six elderly patients
[9] = TRAMP mice, High Dose (1250 ppm in diet), 18 weeks, average ± standard deviation
[10] = TRAMP mice, Low Dose (312 ppm in diet), 18 weeks, average ± standard deviation
[11] = TRAMP mice treated with R-etodolac

Question: Which “Prostaglandin synthetase inhibitory activity” value [1] does the source give for `CCc1cccc2c3c([nH]c12)[C@](CC)(CC(=O)O)OCC3` (single isomer, unassigned) [S(+)-enantiomer of etodolac, reference compound] here?
Answer: almost all

Question: And the “Anti-inflammatory activity (reduction in paw volume)” value [2]?
Answer: almost all of the anti-inflammatory activity of the racemate

Question: What about the “Maximum concentration relative to R-enantiomer” value [3, 8] of the same compound?
Answer: 5 fold lower

Question: What does the source list for `CCc1cccc2c3c([nH]c12)[C@@](CC)(CC(=O)O)OCC3` [R-etodolac]?
Answer: Conversion to the S(+) enantiomer in vivo [4]: not converted significantly; Anti-inflammatory activity (reduction in paw volume) [2]: No anti-inflammatory activity was discernible; Average weigh (g) Anterior Prostate [5, 9]: 0.076 ± 0.012 g; Average weigh (g) Dorsal Prostate [5, 9]: 0.053 ± 0.013 g; Average weigh (g) Lateral Prostate [5, 9]: 0.016 ± 0.003 g; Average weigh (g) Ventral prostate [5, 9]: 0.014 ± 0.001 g; Total Weigh average [5, 9]: 0.160 ± 0.022 g; Average weigh (g) Anterior Prostate [5, 10]: 0.062 ± 0.033 g; Average weigh (g) Dorsal Prostate [5, 10]: 0.062 ± 0.027 g; Average weigh (g) Lateral Prostate [5, 10]: 0.015 ± 0.001 g; Average weigh (g) Ventral prostate [5, 10]: 0.024 ± 0.017 g; Overall size of the prostates ([5]; TRAMP mice, highest dose): reduction of the overall size of the prostates; Overall size of the prostates ([5]; treated mice compared to untreated mice): reduces the overall size of the prostates; Maximum plasma concentration [3, 8]: about 33 μM; Plasma concentrations of R-enantiomer relative to S-enantiomer ([3]; in plasma after administration of RS-etodolac, Brocks et al. 1994): about 10 fold; Effects in any other tissues [6, 11]: No other effects in any other tissues were observed; Progression of the disease (histological analysis) [6, 11]: maintaining the animals in a pre-cancerous stage; Overall Mean (staging of group) ([6]; High dose group (1250 ppm in diet), 18 weeks, statistically significant from control group, p < 0.005): 3.3*; Overall Mean (staging of group) ([6]; Low dose group (312 ppm in diet), 18 weeks): 4.3; Average mouse Staging ([6]; individual TRAMP mice, High dose (1250 ppm in diet), 18 weeks): 3.8 and 3.3 (3×) and 3.5 and 3.0; Histopathological grade, Lateral prostate ([6]; individual TRAMP mice, Low dose (312 ppm in diet), 18 weeks, grade 1-6): 3.5; Average mouse Staging ([6]; individual TRAMP mice, Low dose (312 ppm in diet), 18 weeks): 4.0 (2×) and 5.5 and 3.6 and 4.5 and 6.0; Activity against hyperplastic cells [7]: potent activity against hyperplastic cells that is at least equivalent to that of the S(+) enantiomer

Question: With `CCc1cccc2c3c([nH]c12)C(CC)(CC(=O)O)OCC3` (racemic) [etodolac, 1,8-diethyl-1,3,4,9-tetrahydro[3,4-6]indole-1-acetic acid] as the compound, how does the Elimination half-life ([3]; racemic mixture) read?
Answer: 6 to 8 h
